According to ChEMBL document CHEMBL1201862, “PubChem BioAssay data set” (2004):
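Briefly, cells in 96-well plates were exposed to five compound concentrations for 48 h, and endpoints were estimated by linear interpolation. Abbreviation: GI50, concentration required for 50% inhibition of growth.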 Activity calls are given as the source filed them. Cut-off read from the data, not from the text of the source: active = GI50 up to about 1.1 µM and inactive = higher.

Columns and labels:
Assay in all cases: NCI-60 cell line screen, 48 h
[1] = system: MDA-N
[2] = system: M14
[3] = system: RPMI-8226
[4] = system: RXF 393
[5] = system: SF-295
[6] = system: HOP-62
[7] = system: OVCAR-5
[8] = system: HCT-15
[9] = system: HOP-92
[10] = system: NCI-H23
[11] = system: CCRF-CEM
[12] = system: SK-MEL-5
[13] = system: NCI/ADR-RES
[14] = system: SW-620
[15] = system: HT-29
[16] = system: K562
[17] = system: SK-OV-3
[18] = system: NCI-H522
[19] = system: NCI-H460
[20] = system: SF-539

SMILES: Cc1ccsc1/C=N/Nc1ccc2ccccc2n1
- GI50 [1]: 43.4 µM (inactive)
- GI50 [2]: 29.1 µM (inactive)
- GI50 [3]: 48.8 µM (inactive)
- GI50 [4]: 30.5 µM (inactive)
- GI50 [5]: 11.1 µM (inactive)
- GI50 [6]: 19.8 µM (inactive)
- GI50 [7]: > 100 µM (inactive)
- GI50 [8]: 24.8 µM
- GI50 [9]: 17.9 µM (inactive)
- GI50 [10]: 51.1 µM (inactive)
- GI50 [11]: 27.5 µM (inactive)
- GI50 [12]: 3.4 µM (inactive)
- GI50 [13]: 30.5 µM (inactive)
- GI50 [14]: 85.1 µM (inactive)
- GI50 [15]: 12.5 µM (inactive)
- GI50 [16]: 59.8 µM (inactive)
- GI50 [17]: 16.5 µM (inactive)

SMILES: Cn1c(=O)c2c(nc3n2CCCC(=O)N3CC(O)CCl)n(C)c1=O (stereo not given)
- GI50 [1]: > 100 µM (inactive)
- GI50 [18]: > 100 µM (inactive)
- GI50 [19]: > 100 µM (inactive)
- GI50 [2]: > 100 µM (inactive)
- GI50 [3]: > 100 µM (inactive)
- GI50 [4]: > 100 µM (inactive)
- GI50 [5]: > 100 µM (inactive)
- GI50 [6]: > 100 µM (inactive)
- GI50 [7]: > 100 µM (inactive)
- GI50 [8]: > 100 µM
- GI50 [9]: > 100 µM (inactive)
- GI50 [10]: > 100 µM (inactive)
- GI50 [11]: > 100 µM (inactive)
- GI50 [12]: > 100 µM (inactive)
- GI50 [13]: > 100 µM (inactive)
- GI50 [14]: > 100 µM (inactive)
- GI50 [15]: > 100 µM (inactive)
- GI50 [16]: > 100 µM (inactive)
- GI50 [17]: > 100 µM (inactive)

SMILES: Cc1c(C)c(S(=O)(=O)N(CCCCN)OCCCN)c(C)c2c1OC(C)(C)CC2
- GI50 [1]: 22.8 µM (inactive)
- GI50 [18]: 13.1 µM (inactive)
- GI50 [19]: 12.9 µM (inactive)
- GI50 [2]: 28.6 µM (inactive)
- GI50 [20]: 24 µM (inactive)
- GI50 [3]: 23.3 µM (inactive)
- GI50 [5]: 17.7 µM (inactive)
- GI50 [6]: 13.4 µM (inactive)
- GI50 [7]: 15.1 µM (inactive)
- GI50 [8]: 21.5 µM
- GI50 [9]: 17.8 µM (inactive)
- GI50 [10]: 16.4 µM (inactive)
- GI50 [11]: 16.4 µM (inactive)
- GI50 [12]: 33 µM (inactive)
- GI50 [13]: 74.6 µM (inactive)
- GI50 [14]: 31.8 µM (inactive)
- GI50 [15]: 17.6 µM (inactive)
- GI50 [16]: 32.4 µM (inactive)
- GI50 [17]: 15.6 µM (inactive)

SMILES: CCN(CC)c1ccc2c(c1)OC(=O)C(c1nnc(-c3ccc([N+](=O)[O-])cc3)o1)C2 (stereo not given)
- GI50 [1]: > 100 µM (inactive)
- GI50 [18]: > 100 µM (inactive)
- GI50 [19]: > 100 µM (inactive)
- GI50 [2]: > 100 µM (inactive)
- GI50 [3]: > 100 µM (inactive)
- GI50 [4]: > 100 µM (inactive)
- GI50 [5]: > 100 µM (inactive)
- GI50 [6]: > 100 µM (inactive)
- GI50 [7]: > 100 µM (inactive)
- GI50 [8]: > 100 µM
- GI50 [9]: > 100 µM (inactive)
- GI50 [10]: > 100 µM (inactive)
- GI50 [11]: 34.2 µM (inactive)
- GI50 [12]: > 100 µM (inactive)
- GI50 [13]: > 100 µM (inactive)
- GI50 [14]: > 100 µM (inactive)
- GI50 [15]: > 100 µM (inactive)
- GI50 [16]: 38 µM (inactive)
- GI50 [17]: > 100 µM (inactive)

SMILES: Nc1nc(NCC2(CO)CC(CCc3ccccc3)C2)cc(=O)[nH]1 (stereo not given)
- GI50 [1]: > 100 µM (inactive)
- GI50 [18]: > 100 µM (inactive)
- GI50 [19]: > 100 µM (inactive)
- GI50 [2]: > 100 µM (inactive)
- GI50 [3]: 46.7 µM (inactive)
- GI50 [4]: > 100 µM (inactive)
- GI50 [5]: > 100 µM (inactive)
- GI50 [6]: > 100 µM (inactive)
- GI50 [7]: > 100 µM (inactive)
- GI50 [8]: > 100 µM
- GI50 [9]: > 100 µM (inactive)
- GI50 [10]: > 100 µM (inactive)
- GI50 [11]: 78.2 µM (inactive)
- GI50 [12]: > 100 µM (inactive)
- GI50 [13]: > 100 µM (inactive)
- GI50 [14]: > 100 µM (inactive)
- GI50 [15]: > 100 µM (inactive)
- GI50 [16]: 26.2 µM (inactive)
- GI50 [17]: 22.2 µM (inactive)

SMILES: COc1ccc(N2C=Nn3c(nc4sc5c(c4c3=O)CCCC5)C2)cc1
- GI50 [1]: > 100 µM (inactive)
- GI50 [18]: 16.3 µM (inactive)
- GI50 [19]: 86.9 µM (inactive)
- GI50 [2]: 32.5 µM (inactive)
- GI50 [3]: > 100 µM (inactive)
- GI50 [4]: 15.4 µM (inactive)
- GI50 [5]: 18.3 µM (inactive)
- GI50 [6]: 3.09 µM (inactive)
- GI50 [7]: 32.4 µM (inactive)
- GI50 [8]: > 100 µM
- GI50 [9]: 12.2 µM (inactive)
- GI50 [10]: 26.1 µM (inactive)
- GI50 [11]: > 100 µM (inactive)
- GI50 [12]: > 100 µM (inactive)
- GI50 [13]: > 100 µM (inactive)
- GI50 [14]: > 100 µM (inactive)
- GI50 [15]: > 100 µM (inactive)
- GI50 [16]: > 100 µM (inactive)
- GI50 [17]: > 100 µM (inactive)

SMILES: CS(=O)(=O)c1ccc(/C=N/NC(N)=S)cc1
- GI50 [1]: > 100 µM (inactive)
- GI50 [18]: > 100 µM (inactive)
- GI50 [19]: > 100 µM (inactive)
- GI50 [2]: > 100 µM (inactive)
- GI50 [3]: > 100 µM (inactive)
- GI50 [4]: > 100 µM (inactive)
- GI50 [5]: > 100 µM (inactive)
- GI50 [6]: > 100 µM (inactive)
- GI50 [7]: > 100 µM (inactive)
- GI50 [8]: > 100 µM
- GI50 [9]: > 100 µM (inactive)
- GI50 [10]: > 100 µM (inactive)
- GI50 [12]: > 100 µM (inactive)
- GI50 [13]: > 100 µM (inactive)
- GI50 [14]: > 100 µM (inactive)
- GI50 [15]: > 100 µM (inactive)
- GI50 [16]: > 100 µM (inactive)
- GI50 [17]: > 100 µM (inactive)

SMILES: O=C(/C=C1\N=C(c2ccccc2)N(c2nc3c(Cl)cc(Cl)cc3s2)C1=O)/C=C/c1ccccc1
- GI50 [1]: 45.8 µM (inactive)
- GI50 [18]: 45.1 µM (inactive)
- GI50 [19]: > 100 µM (inactive)
- GI50 [2]: > 100 µM (inactive)
- GI50 [3]: 63 µM (inactive)
- GI50 [4]: 63.1 µM (inactive)
- GI50 [5]: > 100 µM (inactive)
- GI50 [6]: > 100 µM (inactive)
- GI50 [7]: > 100 µM (inactive)
- GI50 [8]: 73.1 µM
- GI50 [9]: > 100 µM (inactive)
- GI50 [10]: > 100 µM (inactive)
- GI50 [11]: 46.7 µM (inactive)
- GI50 [12]: 56.4 µM (inactive)
- GI50 [13]: 83.4 µM (inactive)
- GI50 [14]: 72.3 µM (inactive)
- GI50 [15]: > 100 µM (inactive)
- GI50 [16]: 35 µM (inactive)
- GI50 [17]: > 100 µM (inactive)

SMILES: O=C(Nc1nn(C(=O)c2ccc(Cl)cc2)c(=O)s1)c1ccc(Cl)cc1
- GI50 [1]: > 100 µM (inactive)
- GI50 [18]: > 100 µM (inactive)
- GI50 [19]: > 100 µM (inactive)
- GI50 [2]: > 100 µM (inactive)
- GI50 [4]: 46.9 µM (inactive)
- GI50 [5]: > 100 µM (inactive)
- GI50 [6]: > 100 µM (inactive)
- GI50 [7]: > 100 µM (inactive)
- GI50 [8]: > 100 µM
- GI50 [9]: > 100 µM (inactive)
- GI50 [10]: > 100 µM (inactive)
- GI50 [11]: 76.4 µM (inactive)
- GI50 [12]: > 100 µM (inactive)
- GI50 [13]: > 100 µM (inactive)
- GI50 [14]: > 100 µM (inactive)
- GI50 [15]: > 100 µM (inactive)
- GI50 [16]: 77.8 µM (inactive)
- GI50 [17]: > 100 µM (inactive)

SMILES: CC1(C)CC[C@]2(C(=O)O)CC[C@]3(C)C(=CCC4=C5C[C@H](O)[C@H](O)[C@@](C)(CO)[C@@]5(C)CC[C@]43C)[C@@H]2C1
- GI50 [1]: 47.4 µM (inactive)
- GI50 [18]: 46.2 µM (inactive)
- GI50 [19]: 30.4 µM (inactive)
- GI50 [2]: 66.2 µM (inactive)
- GI50 [20]: 56.9 µM (inactive)
- GI50 [3]: 43.8 µM (inactive)
- GI50 [5]: 33.7 µM (inactive)
- GI50 [6]: > 100 µM (inactive)
- GI50 [7]: > 100 µM (inactive)
- GI50 [8]: 38.9 µM
- GI50 [9]: > 100 µM (inactive)
- GI50 [10]: 37.9 µM (inactive)
- GI50 [11]: 0.944 µM (active)
- GI50 [12]: 22.9 µM (inactive)
- GI50 [13]: 43.4 µM (inactive)
- GI50 [14]: 95.1 µM (inactive)
- GI50 [15]: 41.5 µM (inactive)
- GI50 [16]: 62.8 µM (inactive)
- GI50 [17]: > 100 µM (inactive)

SMILES: NCC(O)CSP(=O)(O)O (stereo not given)
- GI50 [1]: > 100 µM (inactive)
- GI50 [18]: > 100 µM (inactive)
- GI50 [19]: > 100 µM (inactive)
- GI50 [2]: > 100 µM (inactive)
- GI50 [3]: > 100 µM (inactive)
- GI50 [4]: > 100 µM (inactive)
- GI50 [5]: > 100 µM (inactive)
- GI50 [6]: > 100 µM (inactive)
- GI50 [7]: > 100 µM (inactive)
- GI50 [8]: > 100 µM
- GI50 [9]: > 100 µM (inactive)
- GI50 [10]: > 100 µM (inactive)
- GI50 [11]: > 100 µM (inactive)
- GI50 [12]: > 100 µM (inactive)
- GI50 [13]: > 100 µM (inactive)
- GI50 [14]: > 100 µM (inactive)
- GI50 [15]: > 100 µM (inactive)
- GI50 [16]: > 100 µM (inactive)
- GI50 [17]: > 100 µM (inactive)
